Legend:
[1] = system: RXF-393 kidney tumor fragments; test: RXF-393 renal carcinoma orthotopic xenograft study; assay type: in vivo, Nu/nu mice; conditions: for median tumor weight: following 16 days of treatment, vehicle 485 mg
Experimental: RXF-393 kidney tumor fragments were implanted intrarenally into Nu/nu mice. On days 5-20 post-implantation animals were fed the Research Diet chow containing Compound A at the following dose levels: 0 g/kg (control), 0.5 g/kg (expected dose 75 mg/kg/day), 2.0 g/kg (expected dose 300 mg/kg/day), or 3.0 g/kg (expected dose 450 mg/kg/day). Tumors were allowed to grow orthotopically, body weights were measured twice weekly, and the animals were sacrificed on Day 23. Both the implanted kidney and the unimplanted kidney were weighed, and the tumor weight is expressed as the difference in kidney weights for each animal.

[2] = system: A498 renal carcinoma cells; test: A498 renal carcinoma subcutaneous xenograft study; assay type: in vivo, NCR nu/nu female mice
Experimental: NCR nu/nu female mice (8-9 weeks old, Harlan Laboratories, Madison, Wis.) were injected subcutaneously on the right hind flank with 5×10^7 A498 renal carcinoma cells in a 50:50 mixture of cells in PBS and Matrigel® (Cat# 356234, LDEV negative, BD Biosciences, Boston, Mass.). Tumor growth was determined by measuring the tumor in two dimensions (L×W) with electronic calipers (Ultra Cal IV, Fred V Fowler Co, Newton, Mass.). Volume was calculated using Study Director Animal Study Management Software (Studylog Systems, South San Francisco, Calif.) as follows: V=(L×W^2)/2,where L and W are the tumor length and width, respectively. Animals were randomized by stratified tumor size and treatment was initiated when the average tumor size was approximately 82 mm^3 (Study Day 0, 17 days post-injection). Test compound was administered ad libitum in the feed as a formulation of 0, 0.5, 2, or 3 g Compound A per kg of AIN-76A rodent diet (Research Diets, Inc, New Brunswick, N.J.). Animals were weighed and tumors measured twice weekly from the day of cell injection to study termination.

[3] = detailed in US2006/0211657 A1; cited from earlier work

Question: For COc1cc(Nc2ncc(F)c(Nc3ccc4c(n3)N(COP(=O)(O)O)C(=O)C(C)(C)O4)n2)cc(OC)c1OC [Compound A], which “reduction in tumor weight vs vehicle” value ([1]; high (3 g/kg) and mid (2 g/kg) dose groups, 16 days of treatment) is on record?
Answer: The value was about 10 fold.

Question: What about the median tumor weight ([1]; high dose 3 g/kg food (450 mg/kg/dose), p<0.0001) of the same molecule?
Answer: The median tumor weight was 63 mg.

Question: What about the “reduction in median tumor weight compared with vehicle” value ([1]; low dose group (75 mg/kg/dose, 0.5 g Compound A/kg food)) of the same molecule?
Answer: Its value is “approximately 25%”.

Question: And the median tumor weight ([1]; mid dose 2 g/kg food (300 mg/kg/dose), p<0.0006)?
Answer: The median tumor weight was 74 mg.

Question: And the Mean body weights ([2]; 0, 0.5, 2.0, 3.0 g Compound A/kg feed groups)?
Answer: Its Mean body weights is “not different among the groups”.

Question: What about the “effect on tumor growth, dose dependence” value ([2]; 0.5, 2.0, 3.0 g Compound A/kg feed) of the same molecule?
Answer: Its value is “dose-dependent effect on tumor growth was observed”.

Question: And the “%T/C” value ([2]; 2.0 g Compound A/kg feed, Day 23)?
Answer: The value was 62%.

Question: And the mean tumor volume ([2]; 2.0 g Compound A/kg feed, by Day 23, control 665, p>0.05)?
Answer: Its mean tumor volume is 485 mm^3.

Question: What about the mean tumor volume ([2]; 3.0 g Compound A/kg feed ad libitum, after 24 days of treatment, vehicle 665, p<0.05) of the same molecule?
Answer: The mean tumor volume was 372 mm^3.

Question: What about the “median change in tumor volume, treated relative to control (% T/C)” value ([2]; 3.0 g Compound A/kg feed, after 24 days of treatment) of the same molecule?
Answer: Its value is 35%.

Question: What about the “metabolism of prodrug in vivo” value [3] of the same molecule?
Answer: The value was “metabolize in vivo to the corresponding active 2,4-pyrimidinediamine compound, Compound 1”.

From patent US20090048214A1, “Methods for Treating Renal Tumors Using 2, 4-Pyrimidinediamine Drug and Prodrug Compounds” (RIGEL PHARMACEUTICALS, INC, priority 2006, published 2009)
